# “Also recorded” adds a separate entry of the source.
# Assays:
# Design in all cases: from tissue; host or cells: brain of living CD-1, C57BL/6J, transgenic APP (AD model), EAE and CSF1R KO mice
# [1] = biological target: T1, CSF1R (Mus musculus, UniProt P09581); assay: Brain uptake in transgenic mouse model of AD; assay type: in vivo, mice; conditions: all brain regions, 45 min
# T1 sequence (P09581 20-977): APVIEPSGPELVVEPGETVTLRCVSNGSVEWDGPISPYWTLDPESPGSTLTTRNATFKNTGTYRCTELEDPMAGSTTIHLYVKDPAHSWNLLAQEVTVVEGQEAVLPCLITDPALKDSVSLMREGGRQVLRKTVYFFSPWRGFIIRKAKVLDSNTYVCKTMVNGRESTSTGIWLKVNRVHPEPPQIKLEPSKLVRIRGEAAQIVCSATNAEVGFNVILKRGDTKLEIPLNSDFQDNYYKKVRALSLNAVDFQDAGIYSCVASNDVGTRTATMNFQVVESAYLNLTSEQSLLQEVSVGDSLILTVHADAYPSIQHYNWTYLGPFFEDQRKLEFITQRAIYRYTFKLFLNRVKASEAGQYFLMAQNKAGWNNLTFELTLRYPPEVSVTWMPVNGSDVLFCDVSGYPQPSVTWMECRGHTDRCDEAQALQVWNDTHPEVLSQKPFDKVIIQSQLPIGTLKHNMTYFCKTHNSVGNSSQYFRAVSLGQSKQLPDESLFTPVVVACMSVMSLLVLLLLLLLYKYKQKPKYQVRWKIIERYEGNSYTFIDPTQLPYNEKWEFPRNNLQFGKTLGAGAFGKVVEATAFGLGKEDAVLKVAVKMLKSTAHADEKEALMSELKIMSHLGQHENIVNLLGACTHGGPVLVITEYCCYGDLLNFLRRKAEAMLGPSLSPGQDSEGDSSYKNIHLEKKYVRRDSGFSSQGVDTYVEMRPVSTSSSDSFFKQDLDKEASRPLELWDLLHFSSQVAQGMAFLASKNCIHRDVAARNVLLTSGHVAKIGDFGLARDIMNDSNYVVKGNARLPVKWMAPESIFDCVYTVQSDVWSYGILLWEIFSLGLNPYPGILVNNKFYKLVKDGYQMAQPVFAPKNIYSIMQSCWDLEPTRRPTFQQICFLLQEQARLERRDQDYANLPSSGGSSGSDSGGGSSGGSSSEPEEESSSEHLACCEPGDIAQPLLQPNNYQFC
# Description: Mouse model of Alzheimer's disease-related amyloidosis overexpressed Amyloid Precursor Protein (APP) with Swedish and Indiana mutations was used. The transgenic APP had tetracycline transactivator (tTa)-sensitive promoter that was activated by over-expressing tTa driven by CaMKII promoter (5). Due to such combination of transgenes, the overexpression of transgenic APP was observed only in principal neurons of the forebrain. […] The Alzheimer's male mice (AD) and their sex-matched control littermates were 16 months of age at the time of the study. […] The outcome variables were calculated as % SUV.
# [2] = biological target: T1, CSF1R; assay: Brain uptake in microglia-depleted vs control mice; assay type: in vivo; conditions: whole brain % SUV, 45 min, PLX3397 chow 290 mg/kg for 3 weeks
# Protocol: Male C57BL/6J mice (22-24 g) from Charles River Laboratories were purchased. […] The control C57BL/6J mice (5 animals) were fed with standard mouse chow for 3 weeks. On the last day of treatment, all animals were sacrificed by cervical dislocation at 45 min following injection of 5.0 MBq (0.135 mCi) [^11C]CPPC [specific radioactivity=475 GBq/μmol (12.8 Ci/μmol)] in 0.2 mL saline into a lateral tail vein. […] The outcome variables were calculated as % SUV.
# [3] = biological target: T1, CSF1R; assay: PET/CT imaging in EAE mice; assay type: in vivo
smiles,measurement,setting,value
"[11CH3]N1CCN(c2ccc(NC(=O)c3ccc(C#N)o3)c(N3CCCCC3)c2)CC1 [[^11C]CPPC, 5-cyano-N-(4-(4-[^11C]methylpiperazin-1-yl)-2-(piperidin-1-yl)phenyl)furan-2-carboxamide]",uptake in brain regions of AD mice vs control,[1],significantly greater; also recorded: significantly higher
same,reduction in radiotracer uptake in microglia-depleted mouse brain vs controls,[2],14%
same,brainstem uptake in EAE mice vs control animals,[3],up to twofold greater
